Experimental data taken from EP4722207A1, “OXOISOINDOLINYL-SUBSTITUTED TETRAHYDROPYRIMIDINEDIONE DERIVATIVE AND USE THEREOF” (Gluetacs Therapeutics (Shanghai) Co., Ltd., priority 2023, dated 2024).

Legend:
Assay type in all cases: cell-based
Conditions in all cases: compounds at 50 nM and 500 nM, 24 hours
[1] = molecular target: T1, WEE1 (Homo sapiens, UniProt P30291+Q96SW2); test: Western-blot assay, substrate protein degradation in hPBMCs: WEE1
T1 construct: effects of the compounds of the present disclosure on the expression of target proteins in cells; endogenous in cells; host or cells: human PBMCs (hPBMCs)
T1 sequence (P30291 whole entry): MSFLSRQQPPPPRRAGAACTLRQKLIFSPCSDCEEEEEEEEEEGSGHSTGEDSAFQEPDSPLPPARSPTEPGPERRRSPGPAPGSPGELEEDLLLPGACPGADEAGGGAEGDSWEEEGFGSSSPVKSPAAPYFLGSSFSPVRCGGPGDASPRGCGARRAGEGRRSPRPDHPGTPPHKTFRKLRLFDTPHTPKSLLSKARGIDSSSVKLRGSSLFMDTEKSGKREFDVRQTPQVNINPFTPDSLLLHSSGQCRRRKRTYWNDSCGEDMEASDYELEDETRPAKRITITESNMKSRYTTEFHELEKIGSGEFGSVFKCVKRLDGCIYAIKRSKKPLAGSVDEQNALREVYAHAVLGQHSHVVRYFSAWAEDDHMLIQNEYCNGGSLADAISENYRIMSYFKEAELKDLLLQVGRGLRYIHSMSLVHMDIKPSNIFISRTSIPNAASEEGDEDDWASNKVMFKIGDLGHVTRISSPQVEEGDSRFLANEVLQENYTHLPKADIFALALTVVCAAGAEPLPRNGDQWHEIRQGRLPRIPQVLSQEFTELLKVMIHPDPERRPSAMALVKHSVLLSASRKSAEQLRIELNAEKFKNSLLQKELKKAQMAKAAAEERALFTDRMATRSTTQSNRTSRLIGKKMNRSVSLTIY
T1 sequence (Q96SW2 whole entry): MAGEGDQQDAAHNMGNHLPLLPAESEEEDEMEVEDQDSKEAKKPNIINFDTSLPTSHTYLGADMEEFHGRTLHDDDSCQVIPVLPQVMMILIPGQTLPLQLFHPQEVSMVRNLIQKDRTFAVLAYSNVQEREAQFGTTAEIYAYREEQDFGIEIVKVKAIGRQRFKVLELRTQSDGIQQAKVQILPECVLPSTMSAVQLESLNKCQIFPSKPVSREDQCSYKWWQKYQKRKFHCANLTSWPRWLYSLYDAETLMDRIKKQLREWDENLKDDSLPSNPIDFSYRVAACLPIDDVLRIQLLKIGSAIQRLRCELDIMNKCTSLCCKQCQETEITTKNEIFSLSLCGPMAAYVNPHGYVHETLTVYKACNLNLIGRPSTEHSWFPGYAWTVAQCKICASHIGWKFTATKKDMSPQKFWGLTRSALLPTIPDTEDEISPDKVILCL
T1 sequence (Q16531 whole entry partner): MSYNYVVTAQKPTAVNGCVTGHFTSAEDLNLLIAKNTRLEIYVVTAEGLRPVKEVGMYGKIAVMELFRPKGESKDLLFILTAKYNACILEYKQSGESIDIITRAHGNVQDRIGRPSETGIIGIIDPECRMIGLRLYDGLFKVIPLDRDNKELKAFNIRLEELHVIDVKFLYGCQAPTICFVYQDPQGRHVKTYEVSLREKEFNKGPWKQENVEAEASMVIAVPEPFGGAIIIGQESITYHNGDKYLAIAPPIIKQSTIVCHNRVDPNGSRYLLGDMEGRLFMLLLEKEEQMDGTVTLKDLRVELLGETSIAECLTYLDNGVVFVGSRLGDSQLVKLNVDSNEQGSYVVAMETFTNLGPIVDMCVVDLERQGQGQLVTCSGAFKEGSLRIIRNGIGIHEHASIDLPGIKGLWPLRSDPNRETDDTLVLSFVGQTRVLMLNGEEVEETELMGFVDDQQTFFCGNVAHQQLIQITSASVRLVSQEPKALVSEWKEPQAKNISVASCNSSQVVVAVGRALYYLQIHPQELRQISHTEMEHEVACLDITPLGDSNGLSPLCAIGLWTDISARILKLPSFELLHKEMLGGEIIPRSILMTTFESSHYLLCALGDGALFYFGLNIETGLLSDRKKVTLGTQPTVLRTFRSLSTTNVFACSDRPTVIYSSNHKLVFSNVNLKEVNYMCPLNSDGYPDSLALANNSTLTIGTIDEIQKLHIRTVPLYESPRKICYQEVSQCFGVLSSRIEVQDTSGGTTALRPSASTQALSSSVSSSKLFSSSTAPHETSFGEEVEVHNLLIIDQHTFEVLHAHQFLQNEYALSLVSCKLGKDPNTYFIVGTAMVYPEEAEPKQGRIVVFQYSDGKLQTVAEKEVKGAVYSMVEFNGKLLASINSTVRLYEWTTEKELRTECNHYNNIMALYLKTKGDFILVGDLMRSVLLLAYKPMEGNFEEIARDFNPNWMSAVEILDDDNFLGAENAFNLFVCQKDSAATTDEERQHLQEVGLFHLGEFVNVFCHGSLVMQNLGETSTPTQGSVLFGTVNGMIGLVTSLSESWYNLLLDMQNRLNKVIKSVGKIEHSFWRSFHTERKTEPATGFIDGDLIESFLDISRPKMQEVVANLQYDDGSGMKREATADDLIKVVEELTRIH

[2] = molecular target: T2, IKZF1 (Homo sapiens, UniProt Q13422+Q96SW2); test: Western-blot assay, substrate protein degradation in hPBMCs: IKZF1
T2 construct: effects of the compounds of the present disclosure on the expression of target proteins in cells; endogenous in cells; host or cells: human PBMCs (hPBMCs)
T2 sequence (Q13422 whole entry): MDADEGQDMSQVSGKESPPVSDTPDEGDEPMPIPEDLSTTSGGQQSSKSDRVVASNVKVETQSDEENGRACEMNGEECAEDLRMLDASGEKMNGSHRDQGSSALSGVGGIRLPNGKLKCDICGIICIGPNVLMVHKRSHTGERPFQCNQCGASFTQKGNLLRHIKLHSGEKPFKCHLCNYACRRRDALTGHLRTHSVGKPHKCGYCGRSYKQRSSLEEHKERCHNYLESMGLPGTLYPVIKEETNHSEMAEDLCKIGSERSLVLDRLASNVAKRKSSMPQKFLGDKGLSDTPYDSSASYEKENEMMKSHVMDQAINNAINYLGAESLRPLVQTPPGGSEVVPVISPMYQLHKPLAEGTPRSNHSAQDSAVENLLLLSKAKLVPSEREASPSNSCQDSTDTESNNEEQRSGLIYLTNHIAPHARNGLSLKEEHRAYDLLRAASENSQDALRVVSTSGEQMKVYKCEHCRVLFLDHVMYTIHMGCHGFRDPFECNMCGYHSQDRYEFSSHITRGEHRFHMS
T2 sequence (Q96SW2 whole entry): as the sequence (Q96SW2 whole entry) above
T2 sequence (Q16531 whole entry partner): as the sequence (Q16531 whole entry partner) above

[3] = molecular target: T3, IKZF2 (Homo sapiens, UniProt Q96SW2+Q9UKS7); test: Western-blot assay, substrate protein degradation in hPBMCs: IKZF2
T3 construct: effects of the compounds of the present disclosure on the expression of target proteins in cells; endogenous in cells; host or cells: human PBMCs (hPBMCs)
T3 sequence (Q9UKS7 whole entry): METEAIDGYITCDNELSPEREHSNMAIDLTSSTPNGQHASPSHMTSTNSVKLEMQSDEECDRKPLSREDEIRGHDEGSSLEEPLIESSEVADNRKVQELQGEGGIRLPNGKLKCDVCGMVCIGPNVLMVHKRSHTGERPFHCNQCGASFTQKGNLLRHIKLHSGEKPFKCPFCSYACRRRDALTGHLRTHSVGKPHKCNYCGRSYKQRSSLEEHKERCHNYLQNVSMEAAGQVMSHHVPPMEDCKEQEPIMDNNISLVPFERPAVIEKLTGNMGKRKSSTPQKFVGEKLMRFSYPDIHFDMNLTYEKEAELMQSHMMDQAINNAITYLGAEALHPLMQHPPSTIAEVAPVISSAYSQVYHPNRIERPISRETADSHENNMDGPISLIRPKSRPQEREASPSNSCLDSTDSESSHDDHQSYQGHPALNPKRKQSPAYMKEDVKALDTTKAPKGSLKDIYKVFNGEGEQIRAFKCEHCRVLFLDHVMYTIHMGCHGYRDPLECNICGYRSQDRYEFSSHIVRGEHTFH
T3 sequence (Q96SW2 whole entry): as the sequence (Q96SW2 whole entry) above
T3 sequence (Q16531 whole entry partner): as the sequence (Q16531 whole entry partner) above

[4] = molecular target: T4, IKZF3 (Homo sapiens, UniProt Q96SW2+Q9UKT9); test: Western-blot assay, substrate protein degradation in hPBMCs: IKZF3
T4 construct: effects of the compounds of the present disclosure on the expression of target proteins in cells; endogenous in cells; host or cells: human PBMCs (hPBMCs)

[5] = molecular target: T5, CK1α (Homo sapiens, UniProt P48729+Q96SW2); test: Western-blot assay, substrate protein degradation in hPBMCs: CK1α
T5 construct: effects of the compounds of the present disclosure on the expression of target proteins in cells; endogenous in cells; host or cells: human PBMCs (hPBMCs)
T5 sequence (P48729 whole entry): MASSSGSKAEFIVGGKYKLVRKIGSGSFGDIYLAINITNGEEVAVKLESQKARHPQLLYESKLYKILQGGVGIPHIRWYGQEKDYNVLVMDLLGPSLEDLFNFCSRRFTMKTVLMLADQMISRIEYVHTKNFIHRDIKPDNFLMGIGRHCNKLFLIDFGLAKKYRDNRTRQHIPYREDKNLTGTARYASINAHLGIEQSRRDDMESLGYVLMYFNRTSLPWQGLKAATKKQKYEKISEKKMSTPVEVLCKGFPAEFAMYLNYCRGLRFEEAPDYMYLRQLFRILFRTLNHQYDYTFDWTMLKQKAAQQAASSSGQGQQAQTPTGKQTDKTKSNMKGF
T5 sequence (Q96SW2 whole entry): as the sequence (Q96SW2 whole entry) above
T5 sequence (Q16531 whole entry partner): as the sequence (Q16531 whole entry partner) above

[6] = molecular target: T6, GSPT1 (Homo sapiens, UniProt P15170+Q96SW2); test: Western-blot assay, substrate protein degradation in hPBMCs: GSPT1
T6 construct: effects of the compounds of the present disclosure on the expression of target proteins in cells; endogenous in cells; host or cells: human PBMCs (hPBMCs)
T6 sequence (P15170 whole entry): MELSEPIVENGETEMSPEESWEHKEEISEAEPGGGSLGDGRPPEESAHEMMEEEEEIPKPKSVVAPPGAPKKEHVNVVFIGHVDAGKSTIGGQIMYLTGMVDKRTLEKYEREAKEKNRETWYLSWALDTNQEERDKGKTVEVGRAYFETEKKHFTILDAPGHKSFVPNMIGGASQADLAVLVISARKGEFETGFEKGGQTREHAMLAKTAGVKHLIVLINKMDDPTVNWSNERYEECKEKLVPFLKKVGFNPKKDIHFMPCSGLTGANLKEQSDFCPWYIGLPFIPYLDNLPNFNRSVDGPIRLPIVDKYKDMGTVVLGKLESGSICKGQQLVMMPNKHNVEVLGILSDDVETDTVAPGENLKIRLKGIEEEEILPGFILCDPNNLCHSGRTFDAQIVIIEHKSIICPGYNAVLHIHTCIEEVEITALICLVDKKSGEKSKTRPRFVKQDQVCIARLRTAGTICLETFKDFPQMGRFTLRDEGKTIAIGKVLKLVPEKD
T6 sequence (Q96SW2 whole entry): as the sequence (Q96SW2 whole entry) above
T6 sequence (Q16531 whole entry partner): as the sequence (Q16531 whole entry partner) above

Compound	WEE1 substrate protein remaining % [1]	IKZF1 substrate protein remaining % [2]	IKZF2 substrate protein remaining % [3]	IKZF3 substrate protein remaining % [4]	CK1α substrate protein remaining % [5]	GSPT1 substrate protein remaining % [6]
O=C1CCN(N2C(=O)c3ccc(CN4CCC(c5ccccc5)CC4)cc3C2=O)C(=O)N1 [GT-06803, 2-(2,4-dioxotetrahydropyrimidin-1(2H)-yl)-5-((4-phenylpiperidin-1-yl)methyl)isoindoline-1,3-dione]	B ("B" is defined as 80%< substrate protein remaining %≤ 100%)	B ("B" is defined as 80%< substrate protein remaining %≤ 100%)	B ("B" is defined as 80%< substrate protein remaining %≤ 100%)	B ("B" is defined as 80%< substrate protein remaining %≤ 100%)	A ("A" is defined as 0% ≤ substrate protein remaining % ≤ 80%)	B ("B" is defined as 80%< substrate protein remaining %≤ 100%)
O=C1CCN(N2C(=O)c3ccc(CN4CCC(c5cccc(Br)c5)CC4)cc3C2=O)C(=O)N1 [GT-06804, 5-((4-(3-bromophenyl)piperidin-1-yl)methyl)-2-(2,4-dioxotetrahydropyrimidin-1(2H)-yl)isoindoline-1,3-dione]	B ("B" is defined as 80%< substrate protein remaining %≤ 100%)	B ("B" is defined as 80%< substrate protein remaining %≤ 100%)	B ("B" is defined as 80%< substrate protein remaining %≤ 100%)	B ("B" is defined as 80%< substrate protein remaining %≤ 100%)	A ("A" is defined as 0% ≤ substrate protein remaining % ≤ 80%)	B ("B" is defined as 80%< substrate protein remaining %≤ 100%)
O=C1CCN(N2C(=O)c3ccc(CN4CCC(c5ccc(Br)cc5)CC4)cc3C2=O)C(=O)N1 [GT-06805, 5-((4-(4-bromophenyl)piperidin-1-yl)methyl)-2-(2,4-dioxotetrahydropyrimidin-1(2H)-yl)isoindoline-1,3-dione]	B ("B" is defined as 80%< substrate protein remaining %≤ 100%)	B ("B" is defined as 80%< substrate protein remaining %≤ 100%)	B ("B" is defined as 80%< substrate protein remaining %≤ 100%)	B ("B" is defined as 80%< substrate protein remaining %≤ 100%)	A ("A" is defined as 0% ≤ substrate protein remaining % ≤ 80%)	B ("B" is defined as 80%< substrate protein remaining %≤ 100%)
O=C1CCN(N2C(=O)c3ccc(CN4CCC(c5ccccc5F)CC4)cc3C2=O)C(=O)N1 [GT-06877, 2-(2,4-dioxotetrahydropyrimidin-1(2H)-yl)-5-((4-(2-fluorophenyl)piperidin-1-yl)methyl)isoindoline-1,3-dione]	B ("B" is defined as 80%< substrate protein remaining %≤ 100%)	B ("B" is defined as 80%< substrate protein remaining %≤ 100%)	B ("B" is defined as 80%< substrate protein remaining %≤ 100%)	B ("B" is defined as 80%< substrate protein remaining %≤ 100%)	A ("A" is defined as 0% ≤ substrate protein remaining % ≤ 80%)	B ("B" is defined as 80%< substrate protein remaining %≤ 100%)
O=C1CCN(N2C(=O)c3ccc(CN4CCC(c5ccc(F)cc5)CC4)cc3C2=O)C(=O)N1 [GT-06878, 2-(2,4-dioxotetrahydropyrimidin-1(2H)-yl)-5-((4-(4-fluorophenyl)piperidin-1-yl)methyl)isoindoline-1,3-dione]	B ("B" is defined as 80%< substrate protein remaining %≤ 100%)	B ("B" is defined as 80%< substrate protein remaining %≤ 100%)	B ("B" is defined as 80%< substrate protein remaining %≤ 100%)	B ("B" is defined as 80%< substrate protein remaining %≤ 100%)	A ("A" is defined as 0% ≤ substrate protein remaining % ≤ 80%)	A ("A" is defined as 0% ≤ substrate protein remaining % ≤ 80%)
O=C1CCN(N2C(=O)c3ccc(CN4CCC(c5ccccc5C(F)(F)F)CC4)cc3C2=O)C(=O)N1 [GT-06879, 2-(2,4-dioxotetrahydropyrimidin-1(2H)-yl)-5-((4-(2-(trifluoromethyl)phenyl)piperidin-1-yl)methyl)isoindoline-1,3-dione]	B ("B" is defined as 80%< substrate protein remaining %≤ 100%)	B ("B" is defined as 80%< substrate protein remaining %≤ 100%)	B ("B" is defined as 80%< substrate protein remaining %≤ 100%)	B ("B" is defined as 80%< substrate protein remaining %≤ 100%)	B ("B" is defined as 80%< substrate protein remaining %≤ 100%)	A ("A" is defined as 0% ≤ substrate protein remaining % ≤ 80%)
O=C1CCN(N2C(=O)c3ccc(CN4CCC(c5cccc(C(F)(F)F)c5)CC4)cc3C2=O)C(=O)N1 [GT-06880, 2-(2,4-dioxotetrahydropyrimidin-1(2H)-yl)-5-((4-(3-(trifluoromethyl)phenyl)piperidin-1-yl)methyl)isoindoline-1,3-dione]	A ("A" is defined as 0% ≤ substrate protein remaining % ≤ 80%)	B ("B" is defined as 80%< substrate protein remaining %≤ 100%)	B ("B" is defined as 80%< substrate protein remaining %≤ 100%)	B ("B" is defined as 80%< substrate protein remaining %≤ 100%)	B ("B" is defined as 80%< substrate protein remaining %≤ 100%)	B ("B" is defined as 80%< substrate protein remaining %≤ 100%)
Cc1ccc(N2CCN(Cc3ccc4c(c3)CN(N3CCC(=O)NC3=O)C4=O)CC2)c(C)c1 [GT-06882, 1-(5-((4-(2,4-dimethylphenyl)piperazin-1-yl)methyl)-1-oxoisoindolin-2-yl)dihydropyrimidine-2,4(1H,3H)-dione]	A ("A" is defined as 0% ≤ substrate protein remaining % ≤ 80%)	A ("A" is defined as 0% ≤ substrate protein remaining % ≤ 80%)	B ("B" is defined as 80%< substrate protein remaining %≤ 100%)	B ("B" is defined as 80%< substrate protein remaining %≤ 100%)	B ("B" is defined as 80%< substrate protein remaining %≤ 100%)	A ("A" is defined as 0% ≤ substrate protein remaining % ≤ 80%)
Cc1ccc(Cl)cc1N1CCN(Cc2ccc3c(c2)CN(N2CCC(=O)NC2=O)C3=O)CC1 [GT-06883, 1-(5-((4-(5-chloro-2-methylphenyl)piperazin-1-yl)methyl)-1-oxoisoindolin-2-yl)dihydropyrimidine-2,4(1H,3H)-dione]	A ("A" is defined as 0% ≤ substrate protein remaining % ≤ 80%)	A ("A" is defined as 0% ≤ substrate protein remaining % ≤ 80%)	B ("B" is defined as 80%< substrate protein remaining %≤ 100%)	B ("B" is defined as 80%< substrate protein remaining %≤ 100%)	B ("B" is defined as 80%< substrate protein remaining %≤ 100%)	A ("A" is defined as 0% ≤ substrate protein remaining % ≤ 80%)
O=C1CCN(N2Cc3cc(CN4CCC(c5ccc(Br)cc5)CC4)ccc3C2=O)C(=O)N1 [GT-06886, 1-(5-((4-(4-bromophenyl)piperidin-1-yl)methyl)-1-oxoisoindolin-2-yl)dihydropyrimidine-2,4(1H,3H)-dione]	B ("B" is defined as 80%< substrate protein remaining %≤ 100%)	B ("B" is defined as 80%< substrate protein remaining %≤ 100%)	A ("A" is defined as 0% ≤ substrate protein remaining % ≤ 80%)	B ("B" is defined as 80%< substrate protein remaining %≤ 100%)	B ("B" is defined as 80%< substrate protein remaining %≤ 100%)	A ("A" is defined as 0% ≤ substrate protein remaining % ≤ 80%)
O=C1CCN(N2Cc3cc(CN4CCC(c5ccccc5Cl)CC4)ccc3C2=O)C(=O)N1 [GT-06887, 1-(5-((4-(2-chlorophenyl)piperidin-1-yl)methyl)-1-oxoisoindolin-2-yl)dihydropyrimidine-2,4(1H,3H)-dione]	A ("A" is defined as 0% ≤ substrate protein remaining % ≤ 80%)	B ("B" is defined as 80%< substrate protein remaining %≤ 100%)	A ("A" is defined as 0% ≤ substrate protein remaining % ≤ 80%)	B ("B" is defined as 80%< substrate protein remaining %≤ 100%)	B ("B" is defined as 80%< substrate protein remaining %≤ 100%)	A ("A" is defined as 0% ≤ substrate protein remaining % ≤ 80%)
O=C1CCN(N2Cc3cc(CN4CCC(c5ccc(Cl)cc5)CC4)ccc3C2=O)C(=O)N1 [GT-06888, 1-(5-((4-(4-chlorophenyl)piperidin-1-yl)methyl)-1-oxoisoindolin-2-yl)dihydropyrimidine-2,4(1H,3H)-dione]	A ("A" is defined as 0% ≤ substrate protein remaining % ≤ 80%)	B ("B" is defined as 80%< substrate protein remaining %≤ 100%)	A ("A" is defined as 0% ≤ substrate protein remaining % ≤ 80%)	B ("B" is defined as 80%< substrate protein remaining %≤ 100%)	B ("B" is defined as 80%< substrate protein remaining %≤ 100%)	A ("A" is defined as 0% ≤ substrate protein remaining % ≤ 80%)
